US20020048566A1, “Modulation of cellular apoptosis and methods for treating cancer” (priority 2000, published 2002)
Residues, ends and D or L forms follow the SMILES beside them. *: point of attachment. Cbz = O=C(OCc1ccccc1)*; CH2F = FC*

Columns and labels:
Type in all cases: cell-based, human
[1] = system: adrenal carcinoma cell line SW13; test: FACS for active caspase 3 after p53 transfection with irreversible caspase inhibitors; details: inhibitor 20 μM added four hours after transfection, harvested at 24 hours
Method: Transfections and fluorescence-activated cell sorting (FACS) analysis. Transfections were carried out as previously described (Wu et al., 1997). In brief, before transfection, 5×10^5 cells/6 cm well were seeded. The cells were transfected with lipofectamine Plus. Four hours after transfections the media was changed and an irreversible caspase inhibitor, Z-IETD-FMK (caspase 8) or Z-LEHD-FMK (caspase 9) was added to the media at a final concentration of 20 μM. Cells were harvested 24 hours after transfection and prepared for detection of active-caspase 3 by flow cytometry as previously described (Ozoren et al., 2000). For adenoviral experiments, cells were harvested 48 hours after infection and fixed and stained with propidium iodide as previously described (Ozoren et al., 2000). Cell sorting was performed.
FIG. 5. Infection of colon carcinoma cell line SW480 and breast carcinoma cell line SKBr3 with Ad-p53 results in caspase cleavage and apoptosis. (a) Western blot analysis for PARP cleavage after adenovirus infection. SW480 and SKBr3 cell lines were infected with an MOI of 50 with either Ad-LacZ or Ad-p53 and harvested at 0, 24 and 48 hours after infection. […] (b) Western blot analysis of caspase 8 and 9 cleavage after adenovirus infection. […]

[2] = system: SW480 cell lines; test: FACS sub-G1 content after Ad-p53 infection of SW480 stably overexpressing c-FLIP-s or Bcl-XL; details: stable overexpression, 48 hours after infection
From the text: Cell culture and adenoviral/retroviral infection. The culture conditions for SW480, HCT 116, and SkBr3 were maintained as previously described (Wu et al., 1997). The adrenal carcinoma cell line, SW13 was a kind gift from R. Sheikhattar (Wistar Institute). Ad-LacZ and Ad-p53 were obtained from B. Vogelstein (Johns Hopkins University) All adenoviruses were propagated, titered, and amplified as previously described (El-Deiry et al., 1993). The retroviral vector pLIB, pLIB-EGFP, pLIB-c-Flip-s, or pLIB-Bcl-XL was cotransfected with pVSVG and pCgP (Dr. Michael Malim, University of Pennsylvania) into 293T cells using the CaPO4 method. The resulting supernatant was used to infect the SW480 cell line (3×10^5 cell/well plated 48 hours before infection) at a titer necessary to obtain greater than 90% infectivity as previously described (Fouchier et al., 1997).
Transfections and fluorescence-activated cell sorting (FACS) analysis. Transfections were carried out as previously described (Wu et al., 1997). In brief, before transfection, 5×10^5 cells/6 cm well were seeded. The cells were transfected with lipofectamine Plus. Four hours after transfections the media was changed and an irreversible caspase inhibitor, Z-IETD-FMK (caspase 8) or Z-LEHD-FMK (caspase 9) was added to the media at a final concentration of 20 μM. […]

[3] = system: SW480 cells; test: Blue cell assay (cotransfection with pCMVb gal, relative cell survival); details: for Blue cells % of vector: blue cells counted after 40 hours, vector-transfected blue cells set to 100% survival
Method: Blue Cell Method. The blue cell method was performed as previously described (Meng, R. D., et al., Mol. Ther. 1:130-144 (2000)). Calculations for Table I were carried out by setting the number of vector-transfected blue cells to 100% (at least 300 cells for each independent experiment), and the wild-type and point mutants were determined as a percentage of vector transfected.
Conserved Hydrophobic Residues Are More Critical for Apoptotic Signaling as Compared with Conserved Charged Positions in the KILLER/DR5 DD. In order to functionally characterize the mutant receptors, this study employed three methods to assess cell death following transfection. The first method involved cotransfection of the mutant receptor along with pCMVb gal. Blue cells were counted after 40 hours in order to determine relative cell survival as compared with vector-transfected cells (number of blue cells for vector was set as equivalent to 100% survival; Table I). To specifically measure apoptosis, this study used a cotransfection based flow cytometric assay to functionally assess apoptotic signaling of each substitution mutant. Each mutant was cotransfected with an EGFP-spectrin construct at a 10:1 ratio (mutant plasmid:EGFP-spectrin plasmid) into SW480 cells for 18 hours and the presence of a sub-G1 peak was used to quantitate apoptotic signaling. The use of the spectrinbound GFP allowed for the identification of specifically transfected cells, and the spectrin fusion permits cell membrane retention of GFP even if cells lose membrane permeability due to cell death (Kalejta, R. F., et al., Mol. Ther. 1:130-144 (2000)). […] One example of a signaling-competent and -incompetent mutant is also shown for comparison. Table II lists the results of three independent experiments for each mutant compared with the wild-type protein after subtracting out transfection-induced death.

[4] = system: SW480 cells; test: GFP-spectrin/PI flow cytometry for sub-G1 peak after transient transfection; design: key to Apoptotic ability (Table II): WT, able to induce apoptosis as well as wild-type protein; ±, 20-25% reduction in ability to induce apoptosis; −, completely deficient in ability to induce apoptosis
Method: GFP/PI Fluorescence-activated Cell Sorting Analysis for Sub-G1 Peak. SW480 cells were transfected with a 1:10 ratio of EGFP-spectrin (Kalejta, R. F., et al., Mol. Ther. 1:130-144 (2000)) and KILLER/DR5 expression plasmid. Transfections were harvested at 18 hours after transfection, processed, and analyzed for the presence of a sub-G1 peak as described previously (Ozoren, N., et al., Int. J. Oncol. 16:917-925 (2000)). 10,000 GFP-positive cells were analyzed per experiment, and three independent experiments were performed for each mutant. Percentage of apoptosis was calculated by subtracting transfection-induced sub-G1 peak (vector transfection) from each wild-type or mutant KILLER/DR5 sub-G1 peak. Figures for Tables II and III were generated by setting wild-type death to 100% (˜40% sub-G1 peak at 18 hours) in order to compare point mutants to the wild-type protein.
(§1) Conserved Hydrophobic Residues Are More Critical for Apoptotic Signaling as Compared with Conserved Charged Positions in the KILLER/DR5 DD. In order to functionally characterize the mutant receptors, this study employed three methods to assess cell death following transfection. The first method involved cotransfection of the mutant receptor along with pCMVb gal. Blue cells were counted after 40 hours in order to determine relative cell survival as compared with vector-transfected cells (number of blue cells for vector was set as equivalent to 100% survival; Table I). To specifically measure apoptosis, this study used a cotransfection based flow cytometric assay to functionally assess apoptotic signaling of each substitution mutant. Each mutant was cotransfected with an EGFP-spectrin construct at a 10:1 ratio (mutant plasmid:EGFP-spectrin plasmid) into SW480 cells for 18 hours and the presence of a sub-G1 peak was used to quantitate apoptotic signaling. […]

[5] = system: SW480 cells; test: PARP cleavage Western blot after transient transfection; details: 16 hours after transfection
Method: Transfections, in Vitro Translation, and Western Blotting. The colon cancer cell line SW480 was maintained and transfected as described previously (Wu, G. S., et al., Nat. Genet. 17:141-143 (1997)). Protein extracts were harvested in 1×Laemmli sample buffer 16 hours after transfection. PARP and Myc immunoblots were performed following SDS-polyacrylamide gel electrophoresis. Horseradish peroxidase-conjugated secondary antibody (1:5000) treatments were followed by enhanced chemiluminescence. In vitro translation reactions were carried out using 1 μg of wild-type or mutant KILLER/DR5 plasmid DNA and a T7-coupled reticulocyte lysate system.
as §1, with “The first method involved cotransfection of the mutant receptor along with pCMVb gal.” left out, “To specifically measure apoptosis, this study used a cotransfection based flow cytometric assay to functionally assess apoptotic signaling of each substitution mutant.” left out

[6] = system: TRAIL DISC (FADD and caspase 8 recruitment) in 293 HEK cells; test: TRAIL DISC immunoprecipitation; details: 16 hours transfection, then 50 ng/ml His-tagged TRAIL 15 minutes at 37° C.
Method: TRAIL DISC Immunoprecipitation. 293 HEK cells were plated to achieve 80% confluence at the time of transfection in a T75. 30 ug of the indicated KILLER/DR5 plasmid was transfected by calcium phosphate for 16 hours to minimize loss of transfected cells. The cells were then trypsinized, spun down, and resuspended in 2 ml of complete medium supplemented with 50 ng/ml His tagged-TRAIL and 1 μg/ml anti-6-histidine antibody for 15 minutes at 37° C. For untreated samples, only the TRAIL was excluded. The cells were washed twice with ice-cold phosphate-buffered saline and lysed for 30 minutes on ice in TRAIL DISC IP lysis buffer (30 mM Tris, pH 7.5, 150 mM NaCl, 10% glycerol, 1% Triton X-100). The lysates were cleared twice by centrifugation at 4° C. The supernatants were immunoprecipitated overnight with 30 μl of agarose at 4° C. to isolate the TRAIL DISC. The complexes were subsequently washed four times with TRAIL DISC IP lysis buffer and eluted with elution buffer with 0.1 M dithiothreitol at room temperature for 2 hours. The protein complexes were methanol/chloroform-precipitated and resolved on 15% SDS-polyacrylamide gels. […]
293 HEK cells were chosen due to their ability to be transfected and relative resistance to TRAIL-induced apoptosis. […] The DISC was then immunoprecipitated and analyzed for the presence of the exogenous KILLER/DR5 receptor along with FADD and caspase 8. […]

CC[C@H](C)[C@H](NC(=O)OCc1ccccc1)C(=O)N[C@@H](CCC(=O)OC)C(=O)N[C@H](C(=O)N[C@@H](CC(=O)OC)C(=O)CF)[C@@H](C)O [Z-IETD-FMK] (Cbz-IE(OMe)TD(OMe)-CH2F)
inhibition of p53-dependent apoptosis (activated caspase 3) [1]: could be inhibited

Bcl-XL: stably over-expressed Bcl-XL, specific inhibitor of caspase 9 activation
inhibition of p53-mediated death after Ad-p53 infection (sub-G1) [2]: partially inhibit

Wild-type KILLER/DR5: wild-type TRAIL receptor KILLER/DR5, Myc-His tagged expression construct
Blue cells % of vector [3]: 8 ± 0.2 % of vector
blue cell staining retained ([3]; text summary of Table I): 8%
sub-G1 peak ([4]; at 18 hours, absolute value set as 100% wild-type death): ~40%
PARP cleavage [5]: efficiently caused PARP cleavage
FADD and caspase 8 recruitment to TRAIL DISC [6]: robust recruitment of both FADD and caspase 8

COC(=O)CC[C@H](NC(=O)[C@H](CC(C)C)NC(=O)OCc1ccccc1)C(=O)N[C@@H](Cc1cnc[nH]1)C(=O)N[C@@H](CC(=O)OC)C(=O)CF [Z-LETD-FMK, Z-LEHD-FMK] (Cbz-LE(OMe)HD(OMe)-CH2F)
inhibition of p53-dependent apoptosis (activated caspase 3) [1]: could be inhibited

K388A: KILLER/DR5 death domain alanine point mutant
Blue cells % of vector [3]: 9 ± 1.5 % of vector
Apoptotic ability (Table II) ([4]; 18 hours after transfection): WT
Sub-G1 peak % WT (alanine scanning mutants) ([4]; 18 hours after transfection, transfection-induced death subtracted, wild-type death set to 100%, three independent experiments): 101 ± 11.3 % WT
